Data set [1] deals with T1, PurR (Bacillus subtilis, UniProt P37551).
T1 construct: untagged B. subtilis PurR
The experiment in a line: DRaCALA with […]-pppGpp. Format: binding.

Data set [2] concerns the target T1, PurR. The experiment in a line: X-ray co-crystal structure ([…] Å); DRaCALA with […]-ppGpp. Format: binding.
In data set [3] the target is T2, PurR Y102A/F205A (Bacillus subtilis, UniProt P37551, Y102A/F205A).
T2 sequence (P37551 1-285 Y102A/F205A): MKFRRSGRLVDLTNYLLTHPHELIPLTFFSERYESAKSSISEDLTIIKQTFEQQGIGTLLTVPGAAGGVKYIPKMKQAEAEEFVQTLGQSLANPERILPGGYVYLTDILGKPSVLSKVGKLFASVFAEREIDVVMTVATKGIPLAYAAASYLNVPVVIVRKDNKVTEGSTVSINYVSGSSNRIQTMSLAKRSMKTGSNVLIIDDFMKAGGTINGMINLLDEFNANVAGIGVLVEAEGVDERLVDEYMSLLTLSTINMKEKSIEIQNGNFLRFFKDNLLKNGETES
The experiment in a line: inhibition of PurR-DNA probe binding by PRPP (Supplementary Figure S15). In kind it is biochemical.

Data set [4] addresses T3, PurR Y102A/K207A (Bacillus subtilis, UniProt P37551, Y102A/K207A).
T3 sequence (P37551 1-285 Y102A/K207A): T2 sequence (P37551 1-285 Y102A/F205A)
Described as above. Format: biochemical.

Data set [5] concerns the molecule itself. The experiment in a line: crystal structure; untagged PurR at 20 mg/ml with 1 mM ppGpp, hanging drop vapor diffusion, 0.1 M MES pH 6.5, 18% PEG 1500, room temperature; space group P1, three PurR dimers in the asymmetric unit; 2.45 Å.

In data set [1], `Nc1nc2c(ncn2[C@@H]2O[C@H](COP(=O)(O)OP(=O)(O)OP(=O)(O)O)[C@@H](OP(=O)(O)OP(=O)(O)O)[C@H]2O)c(=O)[nH]1` [pppGpp] showed a Kd of approximately 4.4 µM. On to `Nc1nc2c(ncn2[C@@H]2O[C@H](COP(=O)(O)OP(=O)(O)O)[C@@H](OP(=O)(O)OP(=O)(O)O)[C@H]2O)c(=O)[nH]1` [ppGpp], for which the dissociation constant Kd in data set [2] was approximately 4.4 µM. Turning to `O=P(O)(O)OC[C@H]1O[C@H](OP(=O)(O)OP(=O)(O)O)[C@H](O)[C@@H]1O` [PRPP], the “inhibition of PurR-DNA probe binding by PRPP (Supplementary Figure S15)” value in data set [3] was “yet still bind to DNA probes and their binding to DNA is still inhibited by PRPP”; in data set [4], “yet still bind to DNA probes and their binding to DNA is still inhibited by PRPP”.

B1: Bacillus subtilis purine synthesis transcription regulator PurR (untagged) (natural protein, B. subtilis)
chain: T2 sequence (P37551 1-285 Y102A/F205A)
notes: PurR, purine synthesis transcription regulator of Bacillus subtilis; Crystallised with 1 mM ppGpp; three dimers in the asymmetric unit; also called B. subtilis PurR; purine repressor PurR; source: E. coli BL21 T7 Express lacIq, purified (HisTrap FF, TEV cleavage, second HisTrap FF, Sephacryl S-200 gel filtration)
For B1, in data set [5], the binding result was “binds”.

(Values after publication PMC8789054, “The nucleotide messenger (p)ppGpp is an anti-inducer of the purine synthesis transcription regulator PurR in Bacillus” (Nucleic Acids Research, 2021).)
